Experiment [1] deals with scavenger receptor class A (SR-A) activity. The experiment in a line: Scavenger receptor class A (SR-A) activity: [125I]AcLDL association and degradation assays. It is filed as cell-based, human. Particulars: 0.6 nM; 5 to 10 μg/mL [125I]AcLDL, 18 hours. From the text: A scavenger receptor is a lipoprotein receptor expressed on macrophages. It recognizes modified LDL such as oxidized LDL or AcLDL, leading to endocytosis. A ligand of such receptor that has been incorporated into a cell is degraded in the lysosome. Such scavenger receptor plays a very important role on formation of foam cells from macrophages. Known examples of a scavenger receptor include a scavenger receptor class A (SR-A), CD36, lectin-like oxidized LDL receptor-1 (LOX-1), and CD68 [Greaves D R et al., J Lipid Res. 2005; 46: 11-20.]. Oxidized LDL can bind to the four types of the above scavenger receptors. However, the only scavenger receptor to which AcLDL binds is SR-A. In this experiment, AcLDL, which is a representative example of modified LDL, was used as a ligand and the activity of SR-A serving an exclusive scavenger receptor capable of recognizing AcLDL was assayed (FIG. 9).
Peripheral blood human monocytes (4×10^6cells/6 cm dish) were cultured for 7 days in an RPMI-1640 medium (2 mL) containing 10% human serum so as to differentiate into macrophages. At such time, 0.6 nM salusin-α or salusin-β was added during culture to examine effects of salusin-α and salusin-β on the endocytosis activity (SR-A activity) of [^125I]AcLDL. On Day 7, the medium was changed. An adequate amount of medium was added to [^125I]AcLDL (5 to 10 μg/mL) and 0.6 nM salusin-α or salusin-β so as to result in a total amount of 2 mL. The cells were further cultured for 18 hours.
The cells were washed once with PBS containing 3% BSA and then washed twice with PBS. 0.1 N NaOH (1 mL) was added thereto and the resultant was allowed to stand at room temperature for 30 minutes. The cells were recovered into a polystyrene tube (12×75 mm, Fisher Scientific Company), further washed with 0.1 N NaOH (1 mL), and recovered again. The total amount of the cell extraction solution was assayed using a y counter. The protein concentration of a portion thereof was determined by the BCA method (Pierce). The cell association (μg/mg cell protein) of [^125I]AcLDL was calculated by dividing the radioactivity (cpm) of the cell extraction solution by the specific activity (cpm/μg) of [^125I]AcLDL and the cell protein amount (mg) per dish [Miyazaki A et al., J Biol Chem. 1994; 269: 5264-5269].
[^125I]AcLDL incorporated by macrophages via scavenger receptors are degraded in the lysosome. […]
A portion (750 μL) was collected from each culture supernatant into a polystyrene tube (12×75 mm, Fisher Scientific Company). […] In addition, the peptide from [^125I]AcLDL that had been processed by cells was exclusively detected in the trichloroacetic acid soluble fraction. […]

For the next experiment, the system named is SR-A. The experiment in a line: SR-A expression by macrophages of treated apoE-deficient mice (Western blotting). It is filed as in vivo. As to conditions: four weeks. As to the method:
13-week-old male apoE-deficient mice (72 mice) were divided into the following 6 groups: (i) physiological salt saline (control); (ii) salusin-α (0.6 nmol/kg/h); (iii) salusin-β (0.6 nmol/kg/h); (iv) salusin-α (0.6 nmol/kg/h)+anti-salusin-α serum (1.4 μg/kg/h); (v) salusin-β (0.6 nmol/kg/h)+anti-salusin-β serum (1.4 μg/kg/h); and (vi) anti-salusin-β serum (1.4 μg/kg/h). The mice were subjected to continuous subcutaneous administration with the use of an osmotic mini-pump for 4 to 8 weeks. The osmotic mini-pump and the solution contained therein were changed every week.
Macrophages were collected as in the experiment in (1), and the protein expression of the gene involved in foaming of macrophages (i.e., scavenger receptors CD36 and SR-A capable of recognizing oxidized LDL, intracellular cholesterol esterification enzyme ACAT1, and ABCA1, ABCG1, and SR-BI, which are involved in cholesterol efflux) was analyzed by Western blotting. For the internal standard of the macrophage function, β-actin expression was also examined. For quantification of the band concentration, Analyzer (ATTO Corporation, Tokyo) was used.
In general terms: In western blotting, separated proteins are transferred to a membrane and probed.

Turning to “salusin-β: peptide (SEQ ID NO: 3) comprising 20 amino acid residues, generated by processing from preprosalusin (AIFIFIRWLLKLGHHGRAPP; listed as Homo sapiens) [reference compound]”, in experiment [1], the “[125I]AcLDL association assay vs control cells” value is on record as “no significant changes” and the “[125I]AcLDL degradation assay vs control cells” value is “no significant changes”. For the same substance, the “SR-A protein expression relative to control level” value with SR-A (0.6 nmol/kg/h, range given jointly for CD36, SR-A, ACAT1, P<0.05) is recorded as 1.5 to 2.8 times.
For the substance “salusin-α: peptide (SEQ ID NO: 1) comprising 28 amino acid residues, generated by processing from preprosalusin (SGALPPAPAAPRPALRAQRAGPAGPGAK; listed as Homo sapiens)”, in experiment [1], the “[125I]AcLDL association assay vs control cells” value is given as “no significant changes” and the “[125I]AcLDL degradation assay vs control cells” value is “no significant changes”. The SR-A protein expression result with SR-A (salusin-α 0.6 nmol/kg/h) is “did not influence”.

The values above are taken from US20110165173A1, “THERAPEUTIC AGENT AND DETECTION REAGENT FOR ARTERIOSCLEROTIC DISEASE WHICH TARGETS FOR SALUSIN” (PROTEINEXPRESS CO., LTD., priority 2007, published 2011).
